Laboratory results reported in patent publication US20130184308A1, “ACTIVATED BLOOD COAGULATION FACTOR X (FXa) INHIBITOR” (DAIICHI SANKYO COMPANY, LIMITED, priority 2008, published 2013).
Where two headings read alike, the source gives them in different places.

Key:
F1+2, TAT, D-dimer [1] = conditions: atrial fibrillation patients; anticoagulant therapy (N. Vene et al., Thromb Haemost 2003); cited from earlier work
D-dimer = assay: Dose comparison study in non-valvular atrial fibrillation patients: biomarker D-dimer; format: in vivo, human; conditions: 28 days after administration
Protocol: (§1) Moreover, secondary evaluations were performed for efficacy by the comparison of the incidence of thromboembolic events, pharmacodynamic indexes, and biomarkers, and for safety by the comparison of the incidences of adverse events and adverse reactions. […] In the group to which warfarin was administered, 0.5-mg and 1-mg warfarin tablets were used and orally administered once a day for 12 weeks as a rule at a dose that allowed PT-INR to be controlled to between 2.0 and 3.0 inclusive (for 70-year-old or older participants, between 1.6 and 2.6 inclusive).
(§2) The clinical trial was carried out by, after obtaining the consent of test subjects, conducting head diagnostic imaging before registration to confirm no bleeding observation, and conducting head diagnostic imaging (CT or MRI), transthoracic echocardiography, lead electrocardiography, blood pressure examination, pulse rate examination, and hematological/biochemical tests.
(§3) The biomarkers F1+2 and TAT are markers of thrombin formation, while D-dimer is a marker of secondary fibrinolysis.

bleeding events [2] = conditions: total knee arthroplasty patients; 5 mg to 60 mg oral once a day 11 to 14 days
From the text: The implementation of this clinical trial conformed to the ethical research guidelines of the Declaration of Helsinki and secured the maximal human rights, welfare, and safety of the test subjects.

bleeding events [3] = system: bleeding events
Protocol: as §1, §2
In the secondary analysis, the hypothesis (comparison) shown below was studied on the incidence of bleeding events using the one-sided Cochran-Armitage test at the 0.025 level of significance.
This clinical trial was carried out in conformity to the standards specified by Article 14 Paragraph 3 and Article 80-2 of the Pharmaceutical Affairs Law and MHW Ordinance No. 28 “Standards for the Implementation of Clinical Trials on Pharmaceutical Products” (Mar. 27, 1997; hereinafter, referred to as the GCP ordinance). The implementation of this clinical trial conformed to the ethical research guidelines of the Declaration of Helsinki and secured the maximal human rights, welfare, and safety of the test subjects. [Protocol No. of this clinical trial: DU-176b-C-J225_Ver.03.05.000].

F1+2, TAT, D-dimer [4] = assay: Early phase II trials: biomarkers F1+2, TAT and D-dimer; format: in vivo, human
From the text: as §3

[5] = NVAF patients, 30 mg, 45 mg, 60 mg oral once a day 12 weeks

| Structure (SMILES) | levels of biomarkers F1+2, TAT and D-dimer (F1+2, TAT, D-dimer [1]) | D-dimer (secondary fibrinolysis biomarker) (D-dimer; NVAF patients, compared with warfarin) | D-dimer (secondary fibrinolysis biomarker) (D-dimer; test subjects having no history of warfarin administration, compared with warfarin-administered patients) | incidence of bleeding events compared with placebo group (bleeding events [2]) | number of bleeding events (bleeding events [2]) | incidence of bleeding events in four groups divided by BW (60 kg) and Ccr (50) (bleeding events [3]; NVAF patients that received compound (1a)) | incidence of bleeding events (major, clinically relevant non-major, minor), dose response (bleeding events [3]; [5]) | incidence of bleeding events compared with warfarin group (bleeding events [3]; [5]) | incidence of bleeding events, Ccr≦50 versus Ccr>50 (bleeding events [3]; NVAF patients, 45 mg/kg or higher (so in the source)) | incidence of bleeding events, BW≦60 kg versus BW>60 kg (bleeding events [3]; NVAF patients, dose of 45 mg/kg or higher (so in the source)) | levels of biomarkers F1+2, TAT and D-dimer (F1+2, TAT, D-dimer [4]) |
| --- | --- | --- | --- | --- | --- | --- | --- | --- | --- | --- | --- |
| CC(=O)CC(c1ccccc1)c1c(O)c2ccccc2oc1=O (centres unmarked) [warfarin, warfarin potassium] | decreased by anticoagulant therapy using warfarin | – | – | – | – | – | – | – | – | – | – |
| CN1CCc2nc(C(=O)N[C@@H]3C[C@@H](C(=O)N(C)C)CC[C@@H]3NC(=O)C(=O)Nc3ccc(Cl)cn3)sc2C1.Cc1ccc(S(=O)(=O)O)cc1 [compound (1a), N^1-(5-chloropyridin-2-yl)-N^2-((1S,2R,4S)-4-[(dimethylamino)carbonyl]-2-{[(5-methyl-4,5,6,7-tetrahydrothiazolo[5,4-c]pyridin-2-yl)carbonyl]amino}cyclohexyl)ethanediamide p-toluenesulfonate monohydrate] | – | comparable to that of warfarin | comparable to that of warfarin-administered patients | did not differ from that in the group to which the placebo had been administered | increased in a manner dependent on the dose | highest incidence of bleeding events was obtained in the group of (4) BW≦60 kg, Ccr≦50 | increased as the dose of the compound (1a) got higher | no significant difference | higher in the group to which compound (1a) had been administered involving the test subjects having creatinine clearance (Ccr) of Ccr≦50 | higher in the group to which compound (1a) had been administered involving the test subjects having a body weight (BW) of BW≦60 kg | reduce the levels of these biomarkers |
